Test results taken from US12233114B2, “Method for treating diabetes” (Novo Nordisk A/S, priority 2016, dated 2025).

What was measured:
[1] = test system: adult human subjects with type 2 diabetes that were at high risk for cardiovascular events; test: Cardiovascular outcomes trial (DEVOTE): insulin degludec vs insulin glargine, time to first MACE; format: in vivo; conditions: for Hazard Ratio (95% CI), time to first MACE: insulin degludec vs insulin glargine
Text: This trial concerned incidence of cardiovascular events in adult human subjects with type 2 diabetes that were at high risk for cardiovascular events, including such subjects with existing cardiovascular disease. The primary objective of this trial was to confirm the cardiovascular safety of insulin degludec (Tresiba®) compared to that of insulin glargine (Lantus®). The secondary objective was to assess efficacy of insulin degludec on markers of glycaemic control and to assess safety on other parameters in subjects with type 2 diabetes that were at high risk for cardiovascular events.
An 18-month recruitment period was planned. […] Subjects were randomised 1:1 in a double-blinded manner to receive blinded insulin degludec or blinded insulin glargine, each added to standard of care. Subjects continued their current antidiabetic therapy except for the basal insulin component (if any), which was replaced by the investigational product. Treatment with bolus insulin was allowed.
Subjects not currently on insulin were to initiate basal insulin at a dose of 10 units OD given between dinner and bedtime. Subjects receiving basal insulin OD were to transfer unit-to-unit from their previous basal insulin dose. Subjects receiving twice-daily (or more) basal insulin transferred to an OD regimen and the pre-trial total basal insulin dose was reduced by 20-30% in accordance with the label for insulin glargine. For subjects receiving premixed/biphasic insulin OD, the basal component was calculated and transferred unit-to-unit to investigational product OD. The bolus insulin component was calculated and transferred unit-to-unit to bolus insulin and given at the most appropriate meal at the investigator's discretion. For subjects receiving premixed/biphasic insulin twice daily (or more), the total basal component was calculated, reduced by 20-30% and transferred to investigational product OD; the bolus component was to be calculated and transferred to insulin aspart and dosed with the most appropriate meals at the investigator's discretion. Subjects treated with bolus insulin as part of their current insulin regimen could be transferred to insulin aspart unit-to-unit from their previous bolus insulin dose, at the investigator's discretion.
Subjects adjusted their basal insulin dose weekly, aiming for a pre-breakfast (fasting) SMPG value of 71-90 mg/dL (4.0-5.0 mmol/L) by using the algorithm in Table 6. The basal dose was adjusted based on the lowest of three pre-breakfast SMPG values, preferably measured two days prior to dose adjustment and on the day of the dose adjustment. No maximum dose was specified. The investigators were to guide the subjects in adjusting their insulin at clinic visits and phone contacts. Investigators and subjects were recommended to follow the basal insulin titration algorithm. Importantly, however, the decision of adjustment of insulin doses was to be based on all available information, such as symptoms of hypoglycaemia and hyperglycaemia, previous responses to dose adjustments and SMPG values other than those required as per protocol.
Intensification with bolus insulin and other antidiabetic treatments was allowed during the course of the trial. The starting dose of bolus insulin was 4 units per relevant meal. […] Titration of bolus insulin could also be done based on carbohydrate counting. This was to be done at the investigator's discretion.
Subjects received insulin degludec or insulin glargine by subcutaneous administrations once daily in addition to the subject's standard treatment. Basal insulin was injected in the thigh, the upper arm (deltoid area) or the abdominal wall. The formulations were administered in the form of an aqueous solution comprising insulin degludec or insulin glargine, using identical 100 units/mL, 10-mL vials and 1-mL syringes.
The results of this trial may be presented herein as a number or fraction of subjects experiencing an event.

[2] = test system: human subjects with type 2 diabetes inadequately controlled with basal insulin and metformin; test: Example 2: 26-week double-blind trial, IDegLira vs IDeg, both added on to metformin; conditions: 26 weeks of treatment
Procedure: (§1) A 26-week randomised, parallel two-arm, double-blind, multi-centre, multinational, treat-to-target trial in 413 human subjects with type 2 diabetes inadequately controlled with basal insulin and metformin with or without SU or glinides was carried out comparing the efficacy and safety of insulin degludec+liraglutide (Xultophy®, IDegLira) once daily with insulin degludec (Tresiba®, IDeg) once daily both added on to metformin. […] The secondary objective was to compare the overall efficacy and safety parameters of IDegLira and IDeg after 26 weeks of treatment. All trial endpoints were collected and assessed throughout the entire duration of the trial.
(§2) Eligible subjects were randomised 1:1 to either once daily IDegLira or once daily IDeg, both in combination with metformin. […] For each subject, the duration of the trial was to be approximately 29 weeks: up to 2 weeks between screening and first treatment, 26 weeks of treatment and at least 1 week of wash-out at the end of the trial.
(§3) The IDegLira dosing unit is defined as a dose step. One (1) IDegLira dose step consists of 1 unit insulin degludec and 0.036 mg liraglutide. Treatment with IDegLira was initiated at 16 dose steps containing 16 units insulin degludec and 0.6 mg liraglutide. Adjustment of the IDegLira dose was performed twice weekly based on the mean of 3 preceding daily fasting SMPG values on 3 consecutive days. Adjustments occurred in 2 dose steps aiming at a fasting glycaemic target of 4.0-5.0 mmol/L (72-90 mg/dL). The maximum allowed dose was 50 dose steps (50 units IDeg/1.8 mg liraglutide). IDeg treatment was initiated with 16 units, and titrated twice weekly to the fasting glycaemic target of 4.0-5.0 mmol/L (72-90 mg/dL) based on the mean fasting SMPG from 3 proceeding measurements as described for IDegLira. The maximum allowed dose was 50 units.
(§4) Subjects received IDegLira or IDeg by subcutaneous administration in addition to metformin. IDegLira or IDeg was injected subcutaneously in the thigh, upper arm (deltoid region) or abdomen once daily preferably at the same time every day. The injection area chosen were to remain unchanged throughout the trial, but rotation within the area was recommended.

[3] = test system: adult human subjects with type 2 diabetes that were at high risk for cardiovascular events; test: CV risk score model and subgroup analysis of MACE based on the DEVOTE trial; format: in vivo; design: key to Estimate (risk of MACE with IDeg compared to IGlar): hazard ratio of MACE, IDeg vs IGlar; conditions: for Estimated hazard ratio (HR) for MACE by CV risk score: IDeg/IGlar
Text: Based on the DEVOTE trial, a cardiovascular (CV) risk score has been developed for individuals with established cardiovascular risk. This risk score was developed using available medical history, baseline information and cardiovascular events occurring during the trial. […] The variables are listed in descending order according to their impact on the overall risk of major adverse cardiovascular events (MACE), here consisting of cardiovascular death, non-fatal myocardial infarction, or non-fatal stroke. The combination of these variables yields an algorithm that can be used to determine the risk of future MACEs and to determine the benefit of being treated with IDeg compared to IGlar.
The CV risk score and estimated MACE hazard ratio for CV risk scores by quartiles based on number of events are presented in FIG. 1. […] This benefit is seen regardless of which of the individual predictors contribute to the high score.
For example, subjects with a BMI ≥30 kg/m^2 and diastolic blood pressure ≥80 mmHg, and subjects with a diastolic blood pressure ≥80 mmHg who were treated with statins would have a benefit with IDeg compared to IGlar in terms of risk of MACE (Table 11).

[4] = test system: human subjects with type 2 diabetes inadequately controlled with basal insulin and metformin; conditions: in vivo
Procedure: as §1, §2, §3, §4

[5] = test system: human subjects with T2DM inadequately controlled on insulin glargine in combination with metformin; test: Example 3: 26-week open-label trial, IDegLira vs IGlar, both in combination with metformin; format: in vivo; conditions: 26 weeks of treatment
Procedure: A 26-week multinational, multi-centre, open-label, two-arm parallel, randomised, treat-to-target trial in 557 human subjects with T2DM inadequately controlled on insulin glargine (IGlar, Lantus®) at a daily dose between 20-50 units (both inclusive) in combination with metformin was carried out. The primary objective was to confirm the efficacy of IDegLira in controlling glycaemia in human subjects with T2DM on previous treatment with IGlar. The secondary objective was to compare safety of IDegLira to IGlar after 26 weeks of treatment and to confirm superiority of IDegLira versus IGlar after 26 weeks of treatment on one or more of the following: change from baseline in HbA1c, confirmed hypoglycaemia, change from baseline in body weight.
IGlar was given at a start dose equal to the pre-trial daily dose of IGlar (dose-to-dose switch) and was titrated according to a predefined titration algorithm with no maximum dose.
The trial included a screening visit to assess subjects' eligibility and weekly visits/phone contacts during the 26-week treatment period.
Subjects randomised to treatment with IDegLira discontinued the pre-trial IGlar treatment prior to initiating IDegLira treatment with a start dose of 16 dose steps, equivalent to 16 units insulin degludec and 0.6 mg liraglutide. […] Subjects randomised for treatment with IGlar […] on the pre-trial, stable IGlar treatment prior to initiating IGlar treatment with a start dose of IGlar equal to the pretrial daily dose (dose-to-dose switch). No predefined maximum dose was specified for IGlar treatment.
Subjects received IDegLira or IGlar by subcutaneous administration once daily in addition to metformin. […] IGlar was to be injected according to the approved label and using the pre-trial dosing time and injection site throughout the trial.

Substance: N^εB29—(N^α—(HOOC(CH2)14CO)-γ-Glu) desB30 human insulin [IDeg]
- n, number of subjects with a first MACE ([1]; all subjects): 325
- proportion of subjects with a first MACE ([1]; all subjects): 8.5%
- Hazard Ratio (95% CI), time to first MACE ([1]; all subjects, MACE = CV death, non-fatal MI, non-fatal stroke, Cox model): 0.91 (0.78;1.06)
- n, number of subjects with a first MACE ([1]; subgroup Africa): 6
- proportion of subjects with a first MACE ([1]; subgroup Africa): 4.6%
- n, number of subjects with a first MACE ([1]; subgroup Asia): 13
- proportion of subjects with a first MACE ([1]; subgroup Asia): 4.1%
- n, number of subjects with a first MACE ([1]; subgroup Female): 99
- proportion of subjects with a first MACE ([1]; subgroup Female): 7.0%
- n, number of subjects with a first MACE ([1]; subgroup Male): 226
- proportion of subjects with a first MACE ([1]; subgroup Male): 9.4%
- Hazard Ratio (95% CI), time to first MACE ([1]; subgroup Region: Africa): 0.30 (0.12; 0.77)
- Hazard Ratio (95% CI), time to first MACE ([1]; subgroup Region: Asia): 0.42 (0.22; 0.81)
- Hazard Ratio (95% CI), time to first MACE ([1]; subgroup Sex: Female): 0.76 (0.59; 0.99)
- Hazard Ratio (95% CI), time to first MACE ([1]; subgroup Sex: Male): 0.99 (0.83; 1.20)
- ΔDiastolic blood pressure (change from baseline) [2]: −0.7 mmHG
- ΔSystolic blood pressure (change from baseline) [2]: −1.7 mmHG
- Estimated hazard ratio (HR) for MACE by CV risk score ([3]; CV risk score quartile High): 1.04
- Estimated hazard ratio (HR) for MACE by CV risk score ([3]; CV risk score quartile Low): 1.02
- Estimated hazard ratio (HR) for MACE by CV risk score ([3]; CV risk score quartile Moderate): 0.89
- Estimated hazard ratio (HR) for MACE by CV risk score ([3]; CV risk score quartile Very High): 0.67
- hazard ratio IDeg/IGlar, risk of MACE ([3]; patients who have a high CV risk score): < 1
- Estimate (risk of MACE with IDeg compared to IGlar) ([3]; subgroup Age 65-75 years AND systolic blood pressure <140 mmHg): 0.70
- Estimate (risk of MACE with IDeg compared to IGlar) ([3]; subgroup Age <65 years AND diastolic blood pressure ≥80 mmHg): 0.64
- Estimate (risk of MACE with IDeg compared to IGlar) ([3]; subgroup Age <65 years AND treated with statins): 0.75
- Estimate (risk of MACE with IDeg compared to IGlar) ([3]; subgroup BMI ≥30 kg/m^2 AND diastolic blood pressure ≥80 mmHg): 0.68
- Estimate (risk of MACE with IDeg compared to IGlar) ([3]; subgroup Diastolic blood pressure <90 mmHg AND HDL ≥1.0 mmol/L): 0.80
- Estimate (risk of MACE with IDeg compared to IGlar) ([3]; subgroup Diastolic blood pressure ≥80 mmHg AND treated with statins): 0.73
- Estimate (risk of MACE with IDeg compared to IGlar) ([3]; subgroup Diastolic blood pressure ≥80 mmHg AND triglycerides >1.7 mmol/L): 0.69
- Estimate (risk of MACE with IDeg compared to IGlar) ([3]; subgroup Established CV risk AND HDL ≥1.0 mmol/L): 0.78
- Estimate (risk of MACE with IDeg compared to IGlar) ([3]; subgroup Established CV risk AND diastolic blood pressure ≥80 mmHg): 0.76
- Estimate (risk of MACE with IDeg compared to IGlar) ([3]; subgroup Established CV risk AND pulse ≥70 bpm): 0.80
- Estimate (risk of MACE with IDeg compared to IGlar) ([3]; subgroup Height <170 cm AND treated with statins): 0.75
- Estimate (risk of MACE with IDeg compared to IGlar) ([3]; subgroup Non-White AND diastolic blood pressure <90 mmHg): 0.64
- Estimate (risk of MACE with IDeg compared to IGlar) ([3]; subgroup Not Hispanic or Latino AND Non-White): 0.64
- Estimate (risk of MACE with IDeg compared to IGlar) ([3]; subgroup Not Hispanic or Latino AND triglycerides >1.7 mmol/L): 0.79
- Estimate (risk of MACE with IDeg compared to IGlar) ([3]; subgroup Previous smoker AND age <65 years): 0.73
- Estimate (risk of MACE with IDeg compared to IGlar) ([3]; subgroup Previous smoker AND cholesterol ≥3 mmol/L): 0.79
- Estimate (risk of MACE with IDeg compared to IGlar) ([3]; subgroup Previous smoker AND diastolic blood pressure ≥80 mmHg): 0.66
- Estimate (risk of MACE with IDeg compared to IGlar) ([3]; subgroup Previous smoker AND treated with statins): 0.79
- Estimate (risk of MACE with IDeg compared to IGlar) ([3]; subgroup Previous smoker AND triglycerides >1.7 mmol/L): 0.73
- Estimate (risk of MACE with IDeg compared to IGlar) ([3]; subgroup Pulse ≥70 bpm AND diastolic blood pressure ≥80 mmHg): 0.74
- Estimate (risk of MACE with IDeg compared to IGlar) ([3]; subgroup Pulse ≥70 bpm AND triglycerides >1.7 mmol/L): 0.76
- Estimate (risk of MACE with IDeg compared to IGlar) ([3]; subgroup Pulse ≥70 mmHg AND treated with statins): 0.72
- Estimate (risk of MACE with IDeg compared to IGlar) ([3]; subgroup Systolic blood pressure <140 mmHg AND HDL ≥1.0 mmol/L): 0.73
- Estimate (risk of MACE with IDeg compared to IGlar) ([3]; subgroup Triglycerides >1.7 mmol/L AND HDL ≥1.0 mmol/L): 0.69
- Estimate (risk of MACE with IDeg compared to IGlar) ([3]; subgroup Triglycerides >1.7 mmol/L AND treated with statins): 0.78
- Adverse event and tolerability profiles [4]: consistent with previous findings
- ΔHeart rate (change from baseline) [4]: −0.6 bpm

Substance: IGlar: Insulin glargine (Lantus®), commercially available basal insulin, active comparator
- n, number of subjects with a first MACE ([1]; all subjects): 356
- proportion of subjects with a first MACE ([1]; all subjects): 9.3%
- n, number of subjects with a first MACE ([1]; subgroup Africa): 18
- proportion of subjects with a first MACE ([1]; subgroup Africa): 14.4%
- n, number of subjects with a first MACE ([1]; subgroup Asia): 31
- proportion of subjects with a first MACE ([1]; subgroup Asia): 9.4%
- n, number of subjects with a first MACE ([1]; subgroup Female): 131
- proportion of subjects with a first MACE ([1]; subgroup Female): 9.1%
- n, number of subjects with a first MACE ([1]; subgroup Male): 225
- proportion of subjects with a first MACE ([1]; subgroup Male): 9.5%
- Mean body weight increase [5]: 1.8 kg
- proportion of subjects experiencing confirmed hypoglycaemic episodes during the trial [5]: 49.1%
- ΔDiastolic blood pressure (change from baseline) [5]: −1.4 mmHG
- ΔHeart rate (change from baseline) [5]: −0.2 bpm
- ΔSystolic blood pressure (change from baseline) [5]: −0.2 mmHG
